The values below come from ChEMBL document CHEMBL5252610, “Synthesis, Characterization, and Bioactivity of the Lichen Pigments Pulvinamide, Rhizocarpic Acid, and Epanorin and Congeners” (J Nat Prod, 2023).

Converted amounts (≈) assume the structure as drawn.

The first series deals with Spodoptera littoralis. In words: Insecticidal activity against Spodoptera littoralis neonate larvae assessed as reduction in weight gain of larvae. It is filed as functional.
Settings: not given
Turning to `COC(=O)[C@H](Cc1ccccc1)NC(=O)/C(=C1/OC(=O)C(c2ccccc2)=C1O)c1ccccc1`, the ED50 was determined as 71 µmol/g.

A further series relates to Spodoptera littoralis. Briefly: Insecticidal activity against Spodoptera littoralis assessed as reduction in number of pupae in adulthood (Rvb=90%). The class given is functional. Also noted: scale not given: the % may be the effect or the level left.
Settings: not given
For the compound `COC(=O)[C@H](Cc1ccccc1)NC(=O)/C(=C1/OC(=O)C(c2ccccc2)=C1O)c1ccccc1`, the Activity turned out to be 25%.

For another series, the system named is Bacillus subtilis. In words: Antibacterial activity against Bacillus subtilis ATCC 6633 assessed as bacterial growth inhibition incubated for 48 hrs by resazurin microtiter assay. The class given is functional.
Settings: not given
(In general: The colour change of resazurin is a common sign of viable cells or microbes.)
For the compound `CN(C)[C@@H]1C(O)=C(C(N)=O)C(=O)[C@@]2(O)C(O)=C3C(=O)c4c(O)cccc4[C@@](C)(O)[C@H]3C[C@@H]12` [TETRACYCLINE], the MIC amounted to 6.3 mg/L (≈ 14.2 µM).
Take `O=C1O/C(=C(/C(=O)N[C@@H](Cc2ccccc2)C(=O)O)c2ccccc2)C(O)=C1c1ccccc1`: the MIC is 100 mg/L (≈ 220 µM).
Still for that read-out and setting: next, `COC(=O)[C@H](CC(C)C)NC(=O)/C(=C1/OC(=O)C(c2ccccc2)=C1O)c1ccccc1`: greater than 100 mg/L; `NC(=O)/C(=C1/OC(=O)C(c2ccccc2)=C1O)c1ccccc1`: 50 mg/L (≈ 163 µM); `O=C1O/C(=C(/C(=O)O)c2ccccc2)C(O)=C1c1ccccc1` [PULVIC ACID]: greater than 100 mg/L.
On the same count and under the same terms, as for `COC(=O)[C@@H](Cc1ccccc1)NC(=O)/C(=C1/OC(=O)C(c2ccccc2)=C1O)c1ccccc1`, the figure is 50 mg/L (≈ 106 µM); as for `COC(=O)[C@@H](CC(C)C)NC(=O)/C(=C1/OC(=O)C(c2ccccc2)=C1O)c1ccccc1`, 50 mg/L (≈ 115 µM).
On the same count and under the same terms, as for `CC(C)C[C@H](NC(=O)/C(=C1/OC(=O)C(c2ccccc2)=C1O)c1ccccc1)C(=O)O`, the figure is greater than 100 mg/L; as for `O=C1OC2=C(c3ccccc3)C(=O)OC2=C1c1ccccc1` [PULVINIC DILACTONE], greater than 100 mg/L.
Take `COC(=O)[C@H](Cc1ccccc1)NC(=O)/C(=C1/OC(=O)C(c2ccccc2)=C1O)c1ccccc1`: the MIC was 50 mg/L (≈ 106 µM).

The subject of the next series is Staphylococcus aureus. Briefly: Antibacterial activity against Staphylococcus aureus ATCC 25923 assessed as bacterial growth inhibition incubated for 48 hrs by resazurin microtiter assay. It is filed as functional.
Settings: not given
With `CN(C)[C@@H]1C(O)=C(C(N)=O)C(=O)[C@@]2(O)C(O)=C3C(=O)c4c(O)cccc4[C@@](C)(O)[C@H]3C[C@@H]12` [TETRACYCLINE], the MIC came out at 12.5 mg/L (≈ 28.1 µM).
Same read-out and setting: as for `O=C1O/C(=C(/C(=O)N[C@@H](Cc2ccccc2)C(=O)O)c2ccccc2)C(O)=C1c1ccccc1`, the figure is greater than 100 mg/L.
On the same count and under the same terms, as for `COC(=O)[C@H](CC(C)C)NC(=O)/C(=C1/OC(=O)C(c2ccccc2)=C1O)c1ccccc1`, the figure is greater than 100 mg/L; as for `NC(=O)/C(=C1/OC(=O)C(c2ccccc2)=C1O)c1ccccc1`, greater than 100 mg/L; as for `O=C1O/C(=C(/C(=O)O)c2ccccc2)C(O)=C1c1ccccc1` [PULVIC ACID], greater than 100 mg/L.
Consider `COC(=O)[C@@H](Cc1ccccc1)NC(=O)/C(=C1/OC(=O)C(c2ccccc2)=C1O)c1ccccc1`, for which the MIC came to 50 mg/L (≈ 106 µM).
As for `COC(=O)[C@@H](CC(C)C)NC(=O)/C(=C1/OC(=O)C(c2ccccc2)=C1O)c1ccccc1`, the MIC came to 100 mg/L (≈ 230 µM).
Still for that read-out and setting: as for `CC(C)C[C@H](NC(=O)/C(=C1/OC(=O)C(c2ccccc2)=C1O)c1ccccc1)C(=O)O`, the figure is greater than 100 mg/L.
The same measure, in the same setting: next, `O=C1OC2=C(c3ccccc3)C(=O)OC2=C1c1ccccc1` [PULVINIC DILACTONE]: greater than 100 mg/L; `COC(=O)[C@H](Cc1ccccc1)NC(=O)/C(=C1/OC(=O)C(c2ccccc2)=C1O)c1ccccc1`: greater than 100 mg/L.

A further series deals with Candida albicans. In words: Antifungal activity against Candida albicans ATCC 10231 assessed as bacterial growth inhibition incubated for 48 hrs by bromocresol green based broth dilution assay. It is filed as functional.
Settings: not given
Consider `O=C1O/C(=C(/C(=O)N[C@@H](Cc2ccccc2)C(=O)O)c2ccccc2)C(O)=C1c1ccccc1`, for which the MIC was greater than 200 mg/L.
As to `COC(=O)[C@H](CC(C)C)NC(=O)/C(=C1/OC(=O)C(c2ccccc2)=C1O)c1ccccc1`, the MIC is greater than 200 mg/L.
Still for that read-out and setting: next, `CN(CC[C@H](N)CC(=O)N[C@H]1C=C[C@H](n2ccc(N)nc2=O)O[C@@H]1C(=O)O)C(=N)N.Cl`: greater than 200 mg/L; `NC(=O)/C(=C1/OC(=O)C(c2ccccc2)=C1O)c1ccccc1`: 200 mg/L (≈ 651 µM).
On the same count and under the same terms, as for `O=C1O/C(=C(/C(=O)O)c2ccccc2)C(O)=C1c1ccccc1` [PULVIC ACID], the figure is greater than 100 mg/L.
Same read-out and setting: next, `COC(=O)[C@@H](Cc1ccccc1)NC(=O)/C(=C1/OC(=O)C(c2ccccc2)=C1O)c1ccccc1`: greater than 200 mg/L.
On to `COC(=O)[C@@H](CC(C)C)NC(=O)/C(=C1/OC(=O)C(c2ccccc2)=C1O)c1ccccc1`, for which the MIC is greater than 200 mg/L.
Still for that read-out and setting: as for `CC(C)C[C@H](NC(=O)/C(=C1/OC(=O)C(c2ccccc2)=C1O)c1ccccc1)C(=O)O`, the figure is greater than 200 mg/L; as for `O=C1OC2=C(c3ccccc3)C(=O)OC2=C1c1ccccc1` [PULVINIC DILACTONE], greater than 100 mg/L; as for `COC(=O)[C@H](Cc1ccccc1)NC(=O)/C(=C1/OC(=O)C(c2ccccc2)=C1O)c1ccccc1`, greater than 200 mg/L.

Another series relates to Saccharomyces cerevisiae. Briefly: Antifungal activity against Saccharomyces cerevisiae ATCC 9763 assessed as bacterial growth inhibition incubated for 48 hrs by bromocresol green based broth dilution assay. It is filed as functional.
Settings: not given
As to `O=C1O/C(=C(/C(=O)N[C@@H](Cc2ccccc2)C(=O)O)c2ccccc2)C(O)=C1c1ccccc1`, the MIC is greater than 200 mg/L.
For the compound `COC(=O)[C@H](CC(C)C)NC(=O)/C(=C1/OC(=O)C(c2ccccc2)=C1O)c1ccccc1`, the MIC is greater than 200 mg/L.
The same measure, in the same setting: as for `CN(CC[C@H](N)CC(=O)N[C@H]1C=C[C@H](n2ccc(N)nc2=O)O[C@@H]1C(=O)O)C(=N)N.Cl`, the figure is 3.1 mg/L; as for `NC(=O)/C(=C1/OC(=O)C(c2ccccc2)=C1O)c1ccccc1`, 100 mg/L (≈ 325 µM); as for `O=C1O/C(=C(/C(=O)O)c2ccccc2)C(O)=C1c1ccccc1` [PULVIC ACID], greater than 100 mg/L.
The same measure, in the same setting: next, `COC(=O)[C@@H](Cc1ccccc1)NC(=O)/C(=C1/OC(=O)C(c2ccccc2)=C1O)c1ccccc1`: greater than 200 mg/L; `COC(=O)[C@@H](CC(C)C)NC(=O)/C(=C1/OC(=O)C(c2ccccc2)=C1O)c1ccccc1`: greater than 200 mg/L; `CC(C)C[C@H](NC(=O)/C(=C1/OC(=O)C(c2ccccc2)=C1O)c1ccccc1)C(=O)O`: greater than 200 mg/L.
On the same count and under the same terms, next, `O=C1OC2=C(c3ccccc3)C(=O)OC2=C1c1ccccc1` [PULVINIC DILACTONE]: greater than 100 mg/L; `COC(=O)[C@H](Cc1ccccc1)NC(=O)/C(=C1/OC(=O)C(c2ccccc2)=C1O)c1ccccc1`: greater than 200 mg/L.

A further series concerns Giardia intestinalis. In words: Antiparasitic activity against Giardia intestinalis 713 assessed as bacterial growth inhibition incubated for 96 hrs by microtiter assay. Conditions: Giardia duodenalis. It is filed as functional.
Regarding `Cc1ncc([N+](=O)[O-])n1CCO` [METRONIDAZOLE], the MIC worked out at 0.3 mg/L (≈ 1.75 µM).
Still for that read-out and setting: as for `O=C1O/C(=C(/C(=O)N[C@@H](Cc2ccccc2)C(=O)O)c2ccccc2)C(O)=C1c1ccccc1`, the figure is greater than 100 mg/L; as for `COC(=O)[C@H](CC(C)C)NC(=O)/C(=C1/OC(=O)C(c2ccccc2)=C1O)c1ccccc1`, 50 mg/L (≈ 115 µM); as for `COC(=O)[C@@H](Cc1ccccc1)NC(=O)/C(=C1/OC(=O)C(c2ccccc2)=C1O)c1ccccc1`, 25 mg/L (≈ 53.2 µM).
Still for that read-out and setting: next, `COC(=O)[C@@H](CC(C)C)NC(=O)/C(=C1/OC(=O)C(c2ccccc2)=C1O)c1ccccc1`: 25 mg/L (≈ 57.4 µM).
The same measure, in the same setting: next, `CC(C)C[C@H](NC(=O)/C(=C1/OC(=O)C(c2ccccc2)=C1O)c1ccccc1)C(=O)O`: greater than 100 mg/L; `COC(=O)[C@H](Cc1ccccc1)NC(=O)/C(=C1/OC(=O)C(c2ccccc2)=C1O)c1ccccc1`: 100 mg/L (≈ 213 µM).

Test system in another series: not listed separately
Briefly: Anticancer activity against mouse NS-1 cells assessed as reduction in cell viability incubated for 96 hrs by resazurin based assay. The class given is functional.
Settings: not given
As to `O=C1O/C(=C(/C(=O)N[C@@H](Cc2ccccc2)C(=O)O)c2ccccc2)C(O)=C1c1ccccc1`, the MIC is greater than 100 mg/L.
On the same count and under the same terms, as for `COC(=O)[C@H](CC(C)C)NC(=O)/C(=C1/OC(=O)C(c2ccccc2)=C1O)c1ccccc1`, the figure is 25 mg/L (≈ 57.4 µM).
The same measure, in the same setting: next, `CSC[S+]([O-])C[C@H](CO)NC(=O)/C=C/c1c(C)[nH]c(=O)[nH]c1=O` (stereo partly drawn): 0.6 mg/L (≈ 1.66 µM); `COC(=O)[C@@H](Cc1ccccc1)NC(=O)/C(=C1/OC(=O)C(c2ccccc2)=C1O)c1ccccc1`: 50 mg/L (≈ 106 µM).
The same measure, in the same setting: next, `COC(=O)[C@@H](CC(C)C)NC(=O)/C(=C1/OC(=O)C(c2ccccc2)=C1O)c1ccccc1`: 50 mg/L (≈ 115 µM).
For `CC(C)C[C@H](NC(=O)/C(=C1/OC(=O)C(c2ccccc2)=C1O)c1ccccc1)C(=O)O`, the MIC was greater than 100 mg/L.
Same read-out and setting: as for `COC(=O)[C@H](Cc1ccccc1)NC(=O)/C(=C1/OC(=O)C(c2ccccc2)=C1O)c1ccccc1`, the figure is 3.1 mg/L (≈ 6.6 µM).

Test system in the next series: not listed separately
In words: Cytotoxicity against human NFF cells assessed as reduction in cell viability incubated for 96 hrs by resazurin based assay. Conditions: read-out: MIC. It is filed as toxicity.
Take `O=C1O/C(=C(/C(=O)N[C@@H](Cc2ccccc2)C(=O)O)c2ccccc2)C(O)=C1c1ccccc1`: the MCC at 96 h is greater than 100 µg/mL.
Same read-out and setting: as for `COC(=O)[C@H](CC(C)C)NC(=O)/C(=C1/OC(=O)C(c2ccccc2)=C1O)c1ccccc1`, the figure is greater than 100 µg/mL; as for `CSC[S+]([O-])C[C@H](CO)NC(=O)/C=C/c1c(C)[nH]c(=O)[nH]c1=O` (stereo partly drawn), 0.6 µg/mL.
The same measure, in the same setting: next, `COC(=O)[C@@H](Cc1ccccc1)NC(=O)/C(=C1/OC(=O)C(c2ccccc2)=C1O)c1ccccc1`: greater than 100 µg/mL; `COC(=O)[C@@H](CC(C)C)NC(=O)/C(=C1/OC(=O)C(c2ccccc2)=C1O)c1ccccc1`: greater than 100 µg/mL; `CC(C)C[C@H](NC(=O)/C(=C1/OC(=O)C(c2ccccc2)=C1O)c1ccccc1)C(=O)O`: greater than 100 µg/mL.
As to `COC(=O)[C@H](Cc1ccccc1)NC(=O)/C(=C1/OC(=O)C(c2ccccc2)=C1O)c1ccccc1`, the MCC at 96 h is greater than 100 µg/mL.
